Source: patent US20160367623A1, “AGONISTS OF GUANYLATE CYCLASE USEFUL FOR THE TREATMENT OF GASTROINTESTINAL DISORDERS, INFLAMMATION, CANCER AND OTHER DISORDERS” (priority 2015, published 2016)
Bridge positions count the residues as written; N and C are the ends. Ends that are not written are not given here.

How the values were obtained:
[1] = system: patients with chronic idiopathic constipation (CIC); assay: First phase 3 CIC trial: stool consistency, Bristol Stool Form Scale (BSFS) change from baseline; assay type: in vivo, human; conditions: for Change from Baseline in Stool Consistency, Difference from Placebo: overall 12-week; for Change from Baseline in Stool Consistency (BSFS), LS Mean (SE): overall average across the 12-week treatment period, ITT; for mean increase from baseline in BSFS score: placebo 0.77
Text: (§1) Both trials include a two-week pre-treatment baseline period, a 12-week treatment period, and a two-week post-treatment period. The phase 3 CIC program was designed to support regulatory submission in the U. S.
(§2) Patients were selected using Rome 3 criteria modified for CIC and had (1) fewer than 3 defecations per week, (2) loose stools occurring rarely without laxatives, (3) inadequate criteria for irritable bowel syndrome with constipation (IBS-C), and (4) at least two of the following applied to at least 25% of defecations: (a) straining during evacuation, (b) lumpy or hard stools, (c) sensation of anorectal obstruction or blockage. Rome 3 requires patients to fulfill the criteria for the last 3 months with symptom onset at least 6 months prior to diagnosis.

[2] = system: patients with chronic idiopathic constipation (CIC); assay: Second phase 3 CIC trial: patient disposition, reasons for discontinuation; conditions: All Randomized
[3] = system: patients with chronic idiopathic constipation (CIC); conditions: in vivo
[4] = system: patients with chronic idiopathic constipation (CIC); assay: Second phase 3 CIC trial: durable overall CSBM responders; assay type: in vivo, human; conditions: MRA; for Difference in Proportions (adjusted), durable overall CSBM responders / Odds Ratio (adjusted), durable overall CSBM responders: adjusted for gender
Text: as §1
The primary endpoint for both trials is the proportion of durable overall responders (%), which is the current regulatory endpoint required for U.S. approval in CIC. The FDA has defined a durable overall responder as a patient who fulfills both ≧3 complete spontaneous bowel movements (CSBMs) per week plus an increase of ≧1 CSBM from baseline in the same week, for 9 out of the 12 treatment weeks. In addition, the same patient must be an overall responder for at least 3 of the last 4 treatment weeks in order to be considered a durable overall responder.
as §2

[5] = Active Combined (N = 877), ITT Population-Excluding Duplicate Patients
[6] = Active Combined (N = 892), ITT Population
[7] = Active Combined (N = 941), All Randomized (includes Duplicate Patients)
[8] = Plecanatide 3 mg (N = 434), ITT Population-Excluding Duplicate Patients
[9] = Plecanatide 3 mg (N = 443), ITT Population
[10] = Plecanatide 3 mg (N = 470), All Randomized (includes Duplicate Patients)
[11] = Plecanatide 6 mg (N = 443), ITT Population-Excluding Duplicate Patients
[12] = Plecanatide 6 mg (N = 449), ITT Population
[13] = Plecanatide 6 mg (N = 471), All Randomized (includes Duplicate Patients)

## Asn^1-Asp^2-Glu^3-Cys^4-Glu^5-Leu^6-Cys^7-Val^8-Asn^9-Val^10-Ala^11-Cys^12-Thr^13-Gly^14-Cys^15-Leu^16 (NDECELCVNVACTGCL; disulfide 4-12, 7-15) [Plecanatide, uroguanylin analogue, guanylate cyclase-C agonist; (C4:C12, C7:C15) bicycle peptide]
[1]; 3 mg
  Week 1 Change from Baseline in Stool Consistency, Difference from Placebo: 0.92
  Week 1 Change from Baseline in Stool Consistency, LS Mean (SE): 1.50 (0.071)
  Change from Baseline in Stool Consistency, Difference from Placebo: 0.76
  Change from Baseline in Stool Consistency (BSFS), LS Mean (SE): 1.53 (0.058)
[1]; 3.0 mg and 6.0 mg, post-treatment period
  stool consistency after discontinuation of treatment: returned towards baseline with no indication of an exaggerated or rebound effect
[1]; 3 mg, n 414
  Week 1 Change from Baseline in Stool Consistency, Mean (SD): 1.57 (1.563)
[1]; 3.0 mg
  mean increase from baseline in BSFS score: 1.53
[1]; 6 mg
  Week 1 Change from Baseline in Stool Consistency, Difference from Placebo: 0.85
  Week 1 Change from Baseline in Stool Consistency, LS Mean (SE): 1.42 (0.072)
  Change from Baseline in Stool Consistency, Difference from Placebo: 0.75
  Change from Baseline in Stool Consistency (BSFS), LS Mean (SE): 1.52 (0.059)
[1]; 6 mg, n 399
  Week 1 Change from Baseline in Stool Consistency, Mean (SD): 1.42 (1.640)
[1]; 6.0 mg
  mean increase from baseline in BSFS score: 1.52
[1]; Active Combined, n 813
  Week 1 Change from Baseline in Stool Consistency, Mean (SD): 1.49 (1.602)
[2]; 3 mg (N = 470)
  Discontinuation before Week 12 (EOT), primary reason Insufficient Therapeutic Effect, (%): (0.6) %
[2]; 6 mg (N = 471)
  Discontinuation before Week 12 (EOT), primary reason Insufficient Therapeutic Effect, (%): (0.2) %
[3]
  serum chemistries, hematology, urinalysis, ECG or vital signs: No clinically relevant abnormalities were observed
[4]; [5]
  Durable Overall CSBM Responders, %: 20.4%
  Non-Responders, %: 79.6%
[4]; [6]
  Durable Overall CSBM Responders, %: 20.1%
  Non-Responders, %: 79.9%
[4]; [7]
  Durable Overall CSBM Responders, %: 19.7%
  Non-Responders, %: 80.3%
[4]; [8]
  Durable Overall CSBM Responders, %: 20.5%
  Non-Responders, %: 79.5%
[4]; [9]
  Durable Overall CSBM Responders, %: 20.1%
  Non-Responders, %: 79.9%
[4]; [10]
  Durable Overall CSBM Responders, %: 19.8%
  Non-Responders, %: 80.2%
[4]; Plecanatide 3 mg minus Placebo, All Randomized (includes Duplicate Patients)
  Difference in Proportions (adjusted), durable overall CSBM responders: 0.076
[4]; Plecanatide 3 mg minus Placebo, ITT Population
  Difference in Proportions (adjusted), durable overall CSBM responders: 0.073
[4]; Plecanatide 3 mg minus Placebo, ITT Population-Excluding Duplicate Patients
  Difference in Proportions (adjusted), durable overall CSBM responders: 0.075
[4]; Plecanatide 3 mg, All Randomized (includes Duplicate Patients)
  Odds Ratio (adjusted), durable overall CSBM responders: 0.562
[4]; Plecanatide 3 mg, ITT Population
  Odds Ratio (adjusted), durable overall CSBM responders: 0.586
[4]; Plecanatide 3 mg, ITT Population-Excluding Duplicate Patients
  Odds Ratio (adjusted), durable overall CSBM responders: 0.583
[4]; [11]
  Durable Overall CSBM Responders, %: 20.3%
  Non-Responders, %: 79.7%
[4]; [12]
  Durable Overall CSBM Responders, %: 20.0%
  Non-Responders, %: 80.0%
[4]; [13]
  Durable Overall CSBM Responders, %: 19.5%
  Non-Responders, %: 80.5%
[4]; Plecanatide 6 mg minus Placebo, All Randomized (includes Duplicate Patients)
  Difference in Proportions (adjusted), durable overall CSBM responders: 0.074
[4]; Plecanatide 6 mg minus Placebo, ITT Population
  Difference in Proportions (adjusted), durable overall CSBM responders: 0.072
[4]; Plecanatide 6 mg minus Placebo, ITT Population-Excluding Duplicate Patients
  Difference in Proportions (adjusted), durable overall CSBM responders: 0.073
[4]; Plecanatide 6 mg, All Randomized (includes Duplicate Patients)
  Odds Ratio (adjusted), durable overall CSBM responders: 0.571
[4]; Plecanatide 6 mg, ITT Population
  Odds Ratio (adjusted), durable overall CSBM responders: 0.587
[4]; Plecanatide 6 mg, ITT Population-Excluding Duplicate Patients
  Odds Ratio (adjusted), durable overall CSBM responders: 0.589
